Our source for the chromatographic logP values is patent EP3636645A1, “PROCESS FOR THE PREPARATION OF SULFUR-SUBSTITUTED PYRIDINE DERIVATIVES” (Bayer Aktiengesellschaft, priority 2018, dated 2020).

This data set is described as follows: physchem. In kind it is physicochemical. As to the method: Die Bestimmung der logP-Werte erfolgte gemäß EEC Directive 79/831 Annex V.A8 durch HPLC (High Performance Liquid Chromatography) an einer Phasenumkehrsäule (C18) mit Hilfe folgender Methoden: Der logP[a] Wert wird durch LC-UV Messung im sauren Bereich bestimmt, mit 0,9 mL/L Ameisensäure in Wasser und 1,0 mL/L Ameisensäure in Acetonitril als Eluenten (linearer Gradient von 10% Acetonitrile bis 95% Acetonitril).
Der logP[n] Wert wird durch LC-UV Messung im neutralen Bereich bestimmt, mit 79 mg/L Ammoniumcarbonat in Wasser und Acetonitril als Eluenten (linearer Gradient von 10% Acetonitril bis 95% Acetonitril).
Die Kalibrierung wurde mit einer homologen Reihe geradkettiger Alkan-2-one (mit 3 bis 16 Kohlenstoffatomen) mit bekannten logP Werten durchgeführt. Die Werte zwischen aufeinanderfolgender Alkanone werden durch lineare Regression bestimmt.

As for `Cn1c(-c2ncccc2SC(F)(F)F)nc2cc(C(F)(F)F)ncc21` [Beispiel 1, 3-Methyl-6-(trifluormethyl)-2-{3-[(trifluormethyl)sulfanyl]pyridin-2-yl}-3H-imidazo [4,5-c] pyridin], the chromatographic logP runs as follows: (hplc c18, acidic formic acid) 3; (hplc c18, ammonium carbonate) 2.97.

In general, chromatographic logP refers to lipophilicity estimated from chromatographic retention. A high value points to a more lipophilic compound.
